The text below walks through data of US6440986B2, “HIV Inhibiting pyrimidine derivatives” (Janssen Pharmaceutica, N.V., priority 1998, dated 2002).

Common to all, as to type: cell-based
The test system of one data set is HIV-1. The data set is described as follows: in vitro anti-HIV assay: inhibition of the HIV-induced cytopathic effect in MT-4 cells (MTT). The following applies: OD 540 nm. The method, then: A rapid, sensitive and automated assay procedure was used for the in vitro evaluation of anti-HIV agents. An […] T4-cell line, MT-4, which was previously shown (Koyanagi et al., Int. J. Cancer, 36, 445-451, 1985) to be highly susceptible to and permissive for HIV infection, served as the target cell line. Inhibition of the HIV-induced cytopathic effect was used as the end point. The viability of both HIV- and mock-infected cells was assessed spectrophotometrically via the in situ reduction of 3-(4,5-dimethylthiazol-2-yl)-2,5-diphenyltetrazolium bromide (MTT). […] The percent protection achieved by the compound in HIV-infected cells was calculated by the following formula: [formula]
(§1) whereby (ODT)HIV is the optical density measured with a given concentration of the test compound in HIV-infected cells; (ODC)HIV is the optical density measured for the control untreated HIV-infected cells: (ODC)MOCK is the optical density measured for the control untreated mock-infected cells; all optical density values were determined at 540 nm. […] The ratio of CC50 to IC50 was defined as the selectivity index (SI).
(Cytopathic effects are the visible damage that an infection or toxin causes in cultured cells.)

A short description of data set [1]: cytotoxicity in mock-infected MT-4 cells (MTT). The following applies: human, mock-infected MT-4 cells, 50% cytotoxic concentration; reduces absorbance of mock-infected MT-4 control by 50%; MTT. How it is done: (§2) A rapid, sensitive and automated assay procedure was used for the in vitro evaluation of anti-HIV agents. […] Inhibition of the HIV-induced cytopathic effect was used as the end point. The viability of both HIV- and mock-infected cells was assessed spectrophotometrically via the in situ reduction of 3-(4,5-dimethylthiazol-2-yl)-2,5-diphenyltetrazolium bromide (MTT). […] The percent protection achieved by the compound in HIV-infected cells was calculated by the following formula: [formula]
as §1

Data set [2] concerns MT-4 cells (mock-infected). In words: cytotoxicity in mock-infected MT-4 cells (MTT). How it is done:
as §2, §1

Where [3] appears, read: Human immunodeficiency virus 1, MT4, dose achieving 50% protection of HIV-infected MT-4 cells against cytopathic effect.
Where [4] appears, read: dose achieving 50% protection of HIV-infected MT-4 cells against cytopathic effect.
[5] abbreviates: 50% cytotoxic concentration, reduces absorbance of mock-infected MT-4 control by 50%, MTT, read-out: CC50.

By IC50 is commonly meant the concentration needed to halve the response being measured. The low end stands for higher potency, the high end for lower potency. For orientation: CC50 means the concentration giving 50% cytotoxicity.

Where two headings read alike, the source gives them in different places.

In the data set on HIV-1 (setting [3]), `N#Cc1ccc(Nc2nc(Cc3c(Cl)cccc3Cl)cc(NCCCO)n2)cc1` [Compound 3, 4-[[4-[(2,6-dichloro-phenyl)methyl]-6-[(3-hydroxypropyl)amino]-2-pyrimidinyl]amino]benzonitrile] registered an IC50 of 16 nM. Besides, it took 37400 nM to reach half-maximal cytotoxicity in data set [1] (CC50).
In turn, `N#Cc1ccc(Nc2cc(Cc3c(Cl)cccc3Cl)nc(NCCCN3CCCC3=O)n2)cc1` [Compound 39, 4-[[6-[(2,6-dichloro-phenyl)methyl]-2-[[3-(2-oxo-1-pyrrolidinyl)propyl]amino]-4-pyrimidinyl]amino]benzonitrile] displayed an IC50 with HIV-1 (setting [3]) of 1530 nM. In data set [1], the CC50 was greater than 100000 nM.
In the data set on HIV-1 (setting [3]), `Cc1cc(C)c(Nc2ccnc(Nc3ccc(C#N)cc3)n2)c(C)c1` [Compound 52, 4-[[4-[(2,4,6-trimethylphenyl)amino]-2-pyrimidinyl]amino]benzonitrile] had an IC50 of 1 nM. For the same compound, in data set [1], the half-maximal cytotoxic concentration (CC50) was determined as 2080 nM.
`Cc1cc(C)c(Oc2ccnc(Nc3ccc(C#N)cc3)n2)c(C)c1` [Compound 58, 4-[[4-(2,4,6-trimethylphenoxy)-2-pyrimidinyl]amino]benzonitrile]: 2.9 nM corresponded to half-maximal inhibition in the data set on HIV-1 (setting [3]) (IC50). For the same compound, the CC50 in data set [1] was greater than 100000 nM.
On to `Cc1cc(Br)c(Nc2ccnc(Nc3ccc(C#N)cc3)n2)c(Br)c1` [Compound 61, 4-[[4-[(2,6-dibromo-4-methylphenyl)amino]-2-pyrimidinyl]amino]benzonitrile], for which, in the data set with HIV-1 (setting [3]), the concentration for half-maximal inhibition (IC50) came to 0.7 nM. Also, the CC50 in data set [1] came out at 100 nM.
The matching figures for `N#Cc1ccc(Nc2nccc(Nc3c(Cl)cc(C(F)(F)F)cc3Cl)n2)cc1` [Compound 66, 4-[[4-[[2,6-dichloro-4-(trifluoromethyl)-phenyl]amino]-2-pyrimidinyl]amino]benzonitrile]: 8.5 nM and 19900 nM.
The compound `Cc1cc(C#N)cc(C)c1Nc1ccnc(Nc2ccc(C#N)cc2)n1` [Compound 69, 4-[[2-[(cyanophenyl)amino]-4-pyrimidinyl]amino]-3,5-dimethylbenzonitrile] came in with an IC50 in the data set with HIV-1 (setting [4]) of 0.4 nM. In addition, the CC50 in data set [2] (setting [5]) is 4700 nM.
`N#Cc1ccc(Nc2nccc(Nc3c(F)cc(Br)cc3Br)n2)cc1` [Compound 70] displayed an IC50 in the data set with HIV-1 (setting [4]) of 0.6 nM. The same compound registered a CC50 in data set [2] of 5800 nM.
In the data set with HIV-1 (setting [4]), `Cc1cc(C)c(N(C)c2ccnc(Nc3ccc(C#N)cc3)n2)c(C)c1` [Compound 71] showed an IC50 of 6.3 nM. The midpoint of cytotoxicity in data set [2], the CC50, lay at 45800 nM.
In the data set on HIV-1 (setting [4]), `N#Cc1ccc(Nc2nccc(Nc3c(Cl)cc(Cl)cc3Cl)n2)cc1` [Compound 72] came in with an IC50 of 0.7 nM. This compound had a CC50 in data set [2] of 500 nM.
For `Cc1cc(C)c(Sc2ccnc(Nc3ccc(C#N)cc3)n2)c(C)c1` [Compound 73], in that order: 3.6 nM and greater than 100000 nM.
The matching figures for `Cc1cc(Cl)cc(Br)c1Oc1ccnc(Nc2ccc(C#N)cc2)n1` [Compound 74]: 10 nM and greater than 100000 nM.
Compound `Cc1cc(Cl)cc(C)c1Nc1ccnc(Nc2ccc(C#N)cc2)n1` [Compound 75] registered an IC50 in the data set with HIV-1 (setting [4]) of 2.1 nM. For the same compound, in data set [2], the midpoint of cytotoxicity, the CC50, lay at 1900 nM.
For the compound `N#Cc1ccc(Nc2nccc(Nc3c(Cl)cc(C#N)cc3Cl)n2)cc1` [Compound 76], in the data set on HIV-1 (setting [4]), the IC50 turned out to be 3.3 nM. For the same compound, the CC50 in data set [2] came out at 5200 nM.
In the data set with HIV-1 (setting [4]), `N#Cc1ccc(Nc2nccc(Nc3c(Cl)cc(OC(F)(F)F)cc3Cl)n2)cc1` [Compound 77] gave an IC50 of 3 nM. This compound also had a CC50 in data set [2] of 9600 nM.
`N#Cc1ccc(Nc2nccc(Nc3c(Cl)cc(Br)c(Cl)c3Br)n2)cc1` [Compound 78] gave a 50% inhibitory concentration (IC50) in the data set on HIV-1 (setting [4]) of 2.8 nM. The same compound displayed a CC50 in data set [2] of 400 nM.
The matching figures for `CCCc1cc(Br)c(Nc2ccnc(Nc3ccc(C#N)cc3)n2)c(Br)c1` [Compound 79]: 3.1 nM and 4800 nM.
Regarding `Cc1cc(C(C)(C)C)cc(C)c1Nc1ccnc(Nc2ccc(C#N)cc2)n1` [Compound 80], in the data set on HIV-1 (setting [4]), the midpoint of inhibition, the IC50, lay at 11 nM. In data set [2], this compound registered a CC50 of 8700 nM.
The matching figures for `Cc1cc(C#N)cc(C)c1Oc1ccnc(Nc2ccc(C#N)cc2)n1` [Compound 81]: 1.1 nM and greater than 100000 nM.
For `Cc1cnc(Nc2ccc(C#N)cc2)nc1Nc1c(C)cc(Cl)cc1C` [Compound 82], in that order: 2.6 nM and 400 nM.
Consider `Cc1cnc(Nc2ccc(C#N)cc2)nc1Nc1c(C)cc(C(C)(C)C)cc1C` [Compound 84], for which, in the data set with HIV-1 (setting [4]), the IC50 came out at 12 nM. Also, half-maximal cytotoxicity in data set [2] (CC50) was put at 9300 nM.
For `Cc1cnc(Nc2ccc(C#N)cc2)nc1Nc1c(C)cc(Br)cc1C` [Compound 85], in that order: 2 nM and 400 nM.
Turning to `Cc1cc(C)c(Sc2nc(Nc3ccc(C#N)cc3)ncc2C)c(C)c1` [Compound 86], the IC50 in the data set on HIV-1 (setting [4]) was 10 nM. This compound showed a CC50 in data set [2] greater than 100000 nM.
As to `CCCc1cc(Br)c(Nc2nc(Nc3ccc(C#N)cc3)ncc2C)c(Br)c1` [Compound 87], it took 3.1 nM to reach half-maximal inhibition in the data set on HIV-1 (setting [4]) (IC50). Further, half-maximal cytotoxicity in data set [2] (CC50) was put at 2200 nM.
In the data set on HIV-1 (setting [4]), `Cc1cnc(Nc2ccc(C#N)cc2)nc1Nc1c(Br)cc(C(C)C)cc1Br` [Compound 88] gave an IC50 of 2.7 nM. The CC50 in data set [2] worked out at 2100 nM.
`Cc1cnc(Nc2ccc(C#N)cc2)nc1Nc1c(C)cc(C#N)cc1C` [Compound 89, 4-[[2-[(4-cyanophenyl)amino]-5-methyl-4-pyrimidinyl]amino]-3,5-dimethylbenzonitrile]: half-maximal inhibition with HIV-1 (setting [3]) (IC50) was put at 0.7 nM. Further, the CC50 in data set [1] came out at 400 nM.
For `Cc1cc(C)c(Nc2ccnc(Nc3ccc(C#N)cc3N)n2)c(C)c1` [Compound 90], inhibition in the data set on HIV-1 (setting [4]) was half-maximal at 3400 nM (IC50). In data set [2], this compound came in with a CC50 of 30800 nM.
`Cc1cc(C)c(Nc2ccnc(Nc3ccc(C#N)c(O)c3)n2)c(C)c1` [Compound 91] returned an IC50 in the data set on HIV-1 (setting [4]) of 2.5 nM. Further, the CC50 in data set [2] is 4900 nM.
Turning to `Clc1cccc(Cl)c1Nc1ccnc(Nc2c(Cl)cccc2Cl)n1` [Compound 92], the IC50 with HIV-1 (setting [4]) came to 45000 nM. In data set [2], this compound had a CC50 greater than 90000 nM.
The matching figures for `Cc1cc(C)c(Nc2nccc(Nc3ccc(C#N)cc3)n2)c(C)c1` [Compound 93]: 3.5 nM and 48100 nM.
The matching figures for `Cc1cc(C)c(Nc2cc(N)nc(Nc3ccc(C#N)cc3)n2)c(C)c1` [Compound 94]: 2.2 nM and 11100 nM.
For `Cc1cc(C)c(Nc2cc(Nc3ccc(C#N)cc3)nc(N)n2)c(C)c1` [Compound 95], in that order: 0.6 nM and 7700 nM.
In the data set on HIV-1 (setting [4]), `Cc1cc(C)c(Nc2ccnc(Nc3ccc(Cl)cc3)n2)c(C)c1` [Compound 96] yielded an IC50 of 3.1 nM. This compound also returned a CC50 in data set [2] of 5800 nM.
For the compound `Cc1cc(C)c(Nc2ccnc(Nc3ccc(F)cc3F)n2)c(C)c1` [Compound 97], the IC50 with HIV-1 (setting [4]) was 32 nM. Moreover, the CC50 in data set [2] is 13200 nM.
Compound `Cc1cc(C)c(Nc2ccnc(Nc3ccc(Br)cn3)n2)c(C)c1` [Compound 98] yielded an IC50 in the data set with HIV-1 (setting [4]) of 2000 nM. Moreover, in data set [2], the CC50 stood at 13800 nM.
In turn, `Cc1cc(C)c(Nc2ccnc(Nc3ccc(C(N)=O)c(N)c3)n2)c(C)c1` [Compound 101] returned an IC50 with HIV-1 (setting [4]) of 53 nM. Further, in data set [2], the CC50 was found to be 29500 nM.
Consider `Cc1cc(C)c(Nc2ccnc(Nc3ccc(C#N)c(N)c3)n2)c(C)c1` [Compound 102], for which the IC50 in the data set on HIV-1 (setting [4]) was 8.2 nM. Besides, the CC50 in data set [2] (setting [5]) was found to be 500 nM.
On to `Cc1c(N)nc(Nc2ccc(CC#N)cc2)nc1Cc1c(Cl)cccc1Cl` [Compound 103], for which, in the data set with HIV-1 (setting [4]), inhibition was half-maximal at 22 nM (IC50). In data set [2], this compound had a CC50 greater than 100000 nM.
In the data set with HIV-1 (setting [4]), `N#Cc1ccc(Nc2nccc(NCc3ccccc3)n2)cc1` [Compound 104] had an IC50 of 3.4 nM. Further, the midpoint of cytotoxicity in data set [2], the CC50, lay at 18600 nM.
